Legend:
[1] = system: HCT-116 human colorectal carcinoma cells; test: Cell proliferation assay, Alamar Blue, HCT-116; assay type: cell-based;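 further: cells exposed to compound for about 4 days, then Alamar Blue added and fluorescence read after about 4 h, medium-only wells as control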
[2] = system: MiaPaca human pancreatic carcinoma cells; test: Cell proliferation assay, Alamar Blue, MiaPaca; assay type: cell-based
Procedure: A representative cell-proliferation assay protocol using Alamar Blue dye (stored at 4° C., use 20 ul per well) is described hereafter.
c. Plate 4,000-5,000 cells per well in 100 μl of medium and seed into a 96-well plate according to the following plate layout. Add cell culture medium only to wells B10 to B12. Wells B1 to B9 have cells but no compound added.
d. Add 100 μl of 2× drug dilution to each well in a concentration shown in the plate layout above. At the same time, add 100 μl of media into the control wells (wells B10 to B12). Total volume is 200 μl/well.
e. Incubate four (4) days at 37° C., 5% CO2 in a humidified incubator.
f. Add 20 μl Alamar Blue reagent to each well.
g. Incubate for four (4) hours at 37° C., 5% CO2 in a humidified incubator.
h. Record fluorescence at an excitation wavelength of 544 nm and emission wavelength of 590 nm using a microplate reader.
In the assays, cells are cultured with a test compound for approximately four days, the dye then is added to the cells and fluorescence of […] dye is detected after approximately four hours. Different types of cells can be utilized in the assays (e.g., HCT-116 human colorectal carcinoma cells, PC-3 human prostatic cancer cells and MiaPaca human pancreatic carcinoma cells). Anti-proliferative effects of representative compounds are provided hereafter.

[3] = HCT-116, Table 16, second HCT-116 column

Row | Compound | IC50 [1, 3] [µM] | IC50 ([2]; MIA PaCa-2, Table 16) [µM] | IC50 ([2]; MIA PaCa-2, Table 18) [µM] | IC50 ([1]; HCT-116, Table 18) [µM] | IC50 ([1]; HCT-116, Table 16, first HCT-116 column) [µM]
1 | O=C(O)c1ccc2c(c1)nc(Nc1cccc(I)c1)c1ccsc12 | > 10 | 9.44 | – | – | –
2 | CN(C)c1ncc2c(n1)c(Nc1cccc(Cl)c1)nc1cc(C(=O)O)ccc12 | – | – | > 50 | – | –
3 | Nc1ncc2c(n1)c(NC1CC1)nc1cc(C(=O)O)ccc12 [drawing 1102] | – | – | > 50 | > 10 | –
4 | O=C(O)c1ccc2c(c1)nc(Nc1cccc(C(F)(F)F)c1)c1ccsc12 | > 10 | > 10 | – | – | –
5 | O=C(O)c1ccc2c(c1)nc(Nc1cccc(Br)c1)c1ccsc12 | > 10 | > 10 | – | – | –
6 | O=C(O)c1ccc2c(c1)nc(NCc1ccccc1)c1nc(NC3CC3)ncc12 [drawing 1084] | – | – | 12.9 | > 10 | –
7 | CC(C)(C)OC(=O)CCNC(=O)c1cccc(Nc2nc3cc(-c4nnn[nH]4)ccc3c3sccc23)c1 | – | > 10 | – | – | –
8 | COc1cccc(Nc2nc3cc(C(=O)O)ccc3c3sccc23)c1 | – | > 10 | – | – | > 10
9 | CN(C)CCNC(=O)c1cccc(Nc2nc3cc(-c4nnn[nH]4)ccc3c3sccc23)c1 | > 10 | > 10 | – | – | –
10 | C#Cc1cccc(Nc2nc3cc(-c4nnn[nH]4)ccc3c3sccc23)c1 | > 10 | > 10 | – | – | –
11 | COC(=O)c1ccc2c(c1)nc(NC1CC1)c1nc(SC)ncc12 [drawing 1099] | – | – | > 50 | – | –
12 | CNC(=O)Cc1cccc(Nc2nc3cc(C(=O)O)ccc3c3sccc23)c1 | > 10 | > 10 | – | – | –
13 | O=C(O)c1cc(F)cc(Nc2nc3cc(C(=O)O)ccc3c3sccc23)c1 | > 10 | > 10 | – | – | –
14 | O=C(O)c1ccc2c(c1)nc(Nc1cccc(F)c1F)c1ccsc12 | > 10 | > 10 | – | – | –
15 | O=C(O)c1ccc2c(c1)nc(Nc1cc(F)cc(Cl)c1)c1ccsc12 | > 10 | > 10 | – | – | –
16 | O=C(NCc1cccnc1)c1cccc(Nc2nc3cc(-c4nnn[nH]4)ccc3c3sccc23)c1 | > 10 | > 10 | – | – | –
17 | O=C(O)c1ccc2c(c1)nc(Nc1cc(F)ccc1F)c1ccsc12 | > 10 | > 10 | – | – | –
18 | CN(C)C(=O)c1cccc(Nc2nc3cc(-c4nnn[nH]4)ccc3c3sccc23)c1 | > 10 | > 10 | – | – | –
19 | O=C(O)c1cccc(Nc2nc3cc(-c4nnn[nH]4)ccc3c3sccc23)c1 | – | > 10 | – | – | –
20 | NS(=O)(=O)c1cccc(Nc2nc3cc(-c4nnn[nH]4)ccc3c3sccc23)c1 | > 10 | > 10 | – | – | –
21 | Cc1cc(CNC(=O)c2cccc(Nc3nc4cc(-c5nnn[nH]5)ccc4c4sccc34)c2)no1 | > 10 | > 10 | – | – | –
22 | CCOc1ncc2c(n1)c(NC1CC1)nc1cc(C(=O)O)ccc12 [drawing 1073] | – | – | > 50 | > 10 | –
23 | O=C(O)c1ccc2c(c1)nc(NC1CC1)c1ccncc12 [drawing 1097] | – | – | 26.5 | > 10 | –
24 | Fc1cc(F)cc(Nc2nc3cc(-c4nnn[nH]4)ccc3c3sccc23)c1 | > 10 | > 10 | – | – | –
25 | COC(=O)CNC(=O)c1cccc(Nc2nc3cc(-c4nnn[nH]4)ccc3c3sccc23)c1 | > 10 | > 10 | – | – | –
26 | Fc1cc(Cl)cc(Nc2nc3cc(-c4nnn[nH]4)ccc3c3sccc23)c1 | > 10 | > 10 | – | – | –
27 | O=C(O)c1ccc2c(c1)nc(Nc1cccc(-c3ccccc3)c1)c1ccsc12 | – | > 10 | – | – | –
28 | O=C(O)c1ccc2c(c1)nc(Nc1ccc3cc[nH]c3c1)c1ccsc12 | > 10 | > 10 | – | – | –
29 | CCOc1cccc(Nc2nc3cc(C(=O)O)ccc3c3sccc23)c1 | > 10 | > 10 | – | – | –
30 | O=C(O)c1ccc2c(c1)nc(Nc1cccc(Cl)c1F)c1ccsc12 | > 10 | > 10 | – | – | –

— patent US9062043B2, “Fused tricyclic compounds as serine-threonine protein kinase and PARP modulators” (SENHWA BIOSCIENCES, INC., priority 2006, dated 2015)
